Earlier results as cited in patent US20260258420A1, “COMPOSITIONS AND METHODS FOR THE TREATMENT OF HUMAN PAPILLOMAVIRUS-DRIVEN CANCERS” (priority 2023, published 2026).

Experiments:
SiHa = settings: cited from earlier work
ME180 = settings: cited from earlier work
CaSki = settings: cited from earlier work
Vu147T = settings: cited from earlier work
UPCI-SCC-090 = settings: cited from earlier work
UDSCC2 = settings: cited from earlier work
[1] = HNSCC patients who received 100 mg/m^2; read-out: plasma Cmax; cited from earlier work

N.N.[Cl][Pt][Cl] [cisplatin]
IC50 (SiHa): 28 µM | IC50 (ME180): 12 µM | IC50 (CaSki): 15 µM | IC50 (Vu147T): 11.2 µM | IC50 (UPCI-SCC-090): 11.1 µM | IC50 (UDSCC2): 18 µM | Cmax [1]: 11 µM
